Reference: publication PMC7531004, “Discovery of gramicidin A analogues with altered activities by multidimensional screening of a one-bead-one-compound library” (Nature Communications, 2020)
Where a SMILES comes first, the peptide text is derived from it. [ ]: non-standard residue; d: D form. The star is where a group is joined. NHCH2CH2OH = OCCN*; For = O=C*

Assays:
[1] = H+/Na+ transport assay of bead-derived peptides (one-point); type: biochemical; parameters: key: relative activity; mean of two control wells = 1.00; settings: bead-derived peptide solution, EYPC/EYPG LUVs;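 note: relative to parent gramicidin A activity set to 1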
Procedure, shortened: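 Values are normalized fluorescence, with Triton X-100 defining 100% and untreated LUVs 0%, and the two control wells averaging 1.00. Vesicles carried 1.0 mM pyranine and included egg yolk phosphatidylglycerol. Peptides were incubated with them 30 min at room temperature.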

[2] = cell viability/%
Procedure, shortened: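 P388 cells at 1 × 10^4 cells/mL (final) were exposed to library peptides (stocks diluted 250-fold in RPMI1640/10% FBS) for 92 h at 37 °C, 5% CO2. Viable cells were counted by WST-1/1-methoxy PMS (4 h), absorbance 415 nm, and expressed as cell viability (%).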

[3] = test system: Streptococcus pyogenes SSI-9; test: Antibacterial activity assay of bead-derived peptides (three concentrations); type: cell-based; parameters: key: +++: inhibition by the 640-fold diluted peptide solution; ++: inhibition by the 160-fold diluted solution; +: inhibition by the 40-fold diluted solution; -: no inhibition; settings: S. pyogenes, bead-derived peptide solution, three concentrations
Procedure, shortened: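 Library peptide stock applied undiluted, 4-fold and 16-fold diluted in DMSO to S. pyogenes SSI-9 (2 × 10^5 CFU) in cation-adjusted Mueller Hinton broth with 5% laked horse blood. After 18 h at 37 °C, growth judged by visible cell precipitation.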

| Compound | H+/Na+ transport activity normalized against the value of 1 (1.00) [1] | viability [2] | antibacterial activity [3] |
| --- | --- | --- | --- |
| CNC(=O)C[C@@H](NC(=O)[C@@H](NC(=O)[C@H](NC(=O)[C@H](C)NC(=O)[C@@H](CC(C)C)NC(=O)[C@H](C)NC(=O)CNC(=O)[C@@H](NC=O)C(C)C)C(C)C)C(C)C)C(=O)N[C@@H](Cc1c[nH]c2ccccc12)C(=O)N[C@H](CC(C)C)C(=O)N[C@@H](Cc1c[nH]c2ccccc12)C(=O)N[C@H](CC(C)C)C(=O)N[C@@H](Cc1c[nH]c2ccccc12)C(=O)N[C@H](CC(C)C)C(=O)N[C@@H](Cc1c[nH]c2ccccc12)C(=O)NCCO [compound 4143] (For-VGA[dL]A[dV]V[dD](NHMe)W[dL]W[dL]W[dL]W-NHCH2CH2OH) | 1.22 | 100% | - |
| CNC(=O)C[C@@H](NC(=O)[C@@H](NC(=O)[C@H](NC(=O)[C@H](C)NC(=O)[C@H](NC(=O)[C@H](C)NC(=O)CNC(=O)[C@@H](NC=O)C(C)C)C(C)C)C(C)C)C(C)C)C(=O)N[C@@H](Cc1c[nH]c2ccccc12)C(=O)N[C@@H](C(=O)N[C@@H](Cc1c[nH]c2ccccc12)C(=O)N[C@@H](C(=O)N[C@@H](Cc1c[nH]c2ccccc12)C(=O)N[C@H](CC(C)C)C(=O)N[C@@H](Cc1c[nH]c2ccccc12)C(=O)NCCO)C(C)C)C(C)C [compound 11413] (For-VGA[dV]A[dV]V[dD](NHMe)W[dV]W[dV]W[dL]W-NHCH2CH2OH) | 1.21 | 45.4% | - |
| CC(C)C[C@@H](NC(=O)[C@H](C)NC(=O)[C@H](NC(=O)[C@H](C)NC(=O)CNC(=O)[C@@H](NC=O)C(C)C)C(C)C)C(=O)N[C@H](C(=O)N[C@@H](C(=O)N[C@@H](Cc1c[nH]c2ccccc12)C(=O)N[C@@H](C(=O)N[C@@H](Cc1c[nH]c2ccccc12)C(=O)N[C@@H](C(=O)N[C@@H](Cc1c[nH]c2ccccc12)C(=O)N[C@@H](C(=O)N[C@@H](Cc1c[nH]c2ccccc12)C(=O)NCCO)C(C)C)C(C)C)C(C)C)C(C)C)C(C)C [compound 7690] (For-VGA[dV]A[dL]V[dV]W[dV]W[dV]W[dV]W-NHCH2CH2OH) | 1.03 | 100% | - |
| CC(C)C[C@@H](NC(=O)[C@H](Cc1c[nH]c2ccccc12)NC(=O)[C@H](NC(=O)[C@H](Cc1c[nH]c2ccccc12)NC(=O)[C@@H](CC(C)C)NC(=O)[C@H](Cc1c[nH]c2ccccc12)NC(=O)[C@H](NC(=O)[C@@H](NC(=O)[C@H](NC(=O)[C@H](C)NC(=O)[C@H](NC(=O)[C@H](C)NC(=O)CNC(=O)[C@@H](NC=O)C(C)C)C(C)C)C(C)C)C(C)C)C(C)C)[C@H](C)O)C(=O)N[C@@H](Cc1c[nH]c2ccccc12)C(=O)NCCO [compound 521] (For-VGA[dV]A[dV]V[dV]W[dL]W[dT]W[dL]W-NHCH2CH2OH) | 1.05 | 100% | + |
| CNC(=O)C[C@@H](NC(=O)[C@H](Cc1c[nH]c2ccccc12)NC(=O)[C@@H](CC(C)C)NC(=O)[C@H](Cc1c[nH]c2ccccc12)NC(=O)[C@@H](CC(C)C)NC(=O)[C@H](Cc1c[nH]c2ccccc12)NC(=O)[C@@H](CC(C)C)NC(=O)[C@@H](NC(=O)[C@@H](CC(C)C)NC(=O)[C@H](C)NC(=O)[C@@H](CC(C)C)NC(=O)[C@H](C)NC(=O)CNC(=O)[C@@H](NC=O)C(C)C)C(C)C)C(=O)N[C@@H](Cc1c[nH]c2ccccc12)C(=O)NCCO [compound 300] (For-VGA[dL]A[dL]V[dL]W[dL]W[dL]W[dD](NHMe)W-NHCH2CH2OH) | 1.00 | 100% | - |
| CNC(=O)C[C@@H](NC(=O)[C@@H](NC(=O)[C@@H](CC(C)C)NC(=O)[C@H](C)NC(=O)[C@@H](CC(C)C)NC(=O)[C@H](C)NC(=O)CNC(=O)[C@@H](NC=O)C(C)C)C(C)C)C(=O)N[C@@H](Cc1c[nH]c2ccccc12)C(=O)N[C@H](CC(C)C)C(=O)N[C@@H](Cc1c[nH]c2ccccc12)C(=O)N[C@@H](C(=O)N[C@@H](Cc1c[nH]c2ccccc12)C(=O)N[C@@H](C(=O)N[C@@H](Cc1c[nH]c2ccccc12)C(=O)NCCO)C(C)C)C(C)C [compound 10379] (For-VGA[dL]A[dL]V[dD](NHMe)W[dL]W[dV]W[dV]W-NHCH2CH2OH) | 1.08 | 100% | - |
| CNC(=O)C[C@@H](NC(=O)[C@@H](NC(=O)[C@@H](CC(C)C)NC(=O)[C@H](C)NC(=O)[C@@H](CC(C)C)NC(=O)[C@H](C)NC(=O)CNC(=O)[C@@H](NC=O)C(C)C)C(C)C)C(=O)N[C@@H](Cc1c[nH]c2ccccc12)C(=O)N[C@@H](C(=O)N[C@@H](Cc1c[nH]c2ccccc12)C(=O)N[C@H](CC(C)C)C(=O)N[C@@H](Cc1c[nH]c2ccccc12)C(=O)N[C@H](CC(C)C)C(=O)N[C@@H](Cc1c[nH]c2ccccc12)C(=O)NCCO)C(C)C [compound 2978] (For-VGA[dL]A[dL]V[dD](NHMe)W[dV]W[dL]W[dL]W-NHCH2CH2OH) | 1.18 | 100% | - |
| CNC(=O)C[C@@H](NC(=O)[C@H](C)NC(=O)[C@H](NC(=O)[C@H](C)NC(=O)CNC(=O)[C@@H](NC=O)C(C)C)C(C)C)C(=O)N[C@H](C(=O)N[C@@H](C(=O)N[C@@H](Cc1c[nH]c2ccccc12)C(=O)N[C@H](CC(C)C)C(=O)N[C@@H](Cc1c[nH]c2ccccc12)C(=O)N[C@@H](C(=O)N[C@@H](Cc1c[nH]c2ccccc12)C(=O)N[C@H](CC(C)C)C(=O)N[C@@H](Cc1c[nH]c2ccccc12)C(=O)NCCO)C(C)C)C(C)C)C(C)C [compound 12938] (For-VGA[dV]A[dD](NHMe)V[dV]W[dL]W[dV]W[dL]W-NHCH2CH2OH) | 1.07 | 100% | - |
| CC(C)C[C@@H](NC(=O)[C@H](Cc1c[nH]c2ccccc12)NC(=O)[C@H](NC(=O)[C@H](Cc1c[nH]c2ccccc12)NC(=O)[C@H](NC(=O)[C@@H](NC(=O)[C@H](NC(=O)[C@H](C)NC(=O)[C@H](NC(=O)[C@H](C)NC(=O)CNC(=O)[C@@H](NC=O)C(C)C)C(C)C)C(C)C)C(C)C)C(C)C)[C@H](C)O)C(=O)N[C@@H](Cc1c[nH]c2ccccc12)C(=O)N[C@@H](C(=O)N[C@@H](Cc1c[nH]c2ccccc12)C(=O)NCCO)C(C)C [compound 2066] (For-VGA[dV]A[dV]V[dV]W[dT]W[dL]W[dV]W-NHCH2CH2OH) | 1.07 | 100% | - |
| CC(C)C[C@@H](NC(=O)[C@H](C)NC(=O)CNC(=O)[C@@H](NC=O)C(C)C)C(=O)N[C@@H](C)C(=O)N[C@@H](C(=O)N[C@H](C(=O)N[C@@H](C(=O)N[C@@H](Cc1c[nH]c2ccccc12)C(=O)N[C@@H](C(=O)N[C@@H](Cc1c[nH]c2ccccc12)C(=O)N[C@H](CC(C)C)C(=O)N[C@@H](Cc1c[nH]c2ccccc12)C(=O)N[C@H](CC(C)C)C(=O)N[C@@H](Cc1c[nH]c2ccccc12)C(=O)NCCO)C(C)C)C(C)C)C(C)C)[C@H](C)O [compound 8755] (For-VGA[dL]A[dT]V[dV]W[dV]W[dL]W[dL]W-NHCH2CH2OH) | 1.10 | 67.3% | - |
| CC(C)C[C@@H](NC(=O)[C@H](Cc1c[nH]c2ccccc12)NC(=O)[C@@H](CC(C)C)NC(=O)[C@@H](NC(=O)[C@H](NC(=O)[C@H](C)NC(=O)[C@H](NC(=O)[C@H](C)NC(=O)CNC(=O)[C@@H](NC=O)C(C)C)C(C)C)C(C)C)C(C)C)C(=O)N[C@@H](Cc1c[nH]c2ccccc12)C(=O)N[C@H](CC(C)C)C(=O)N[C@@H](Cc1c[nH]c2ccccc12)C(=O)N[C@@H](C(=O)N[C@@H](Cc1c[nH]c2ccccc12)C(=O)NCCO)C(C)C [compound 511] (For-VGA[dV]A[dV]V[dL]W[dL]W[dL]W[dV]W-NHCH2CH2OH) | 1.01 | 1.8% | ++ |
| CC(C)C[C@@H](NC(=O)[C@H](C)NC(=O)[C@H](NC(=O)[C@H](C)NC(=O)CNC(=O)[C@@H](NC=O)C(C)C)[C@H](C)O)C(=O)N[C@H](C(=O)N[C@H](CC(C)C)C(=O)N[C@@H](Cc1c[nH]c2ccccc12)C(=O)N[C@H](CC(C)C)C(=O)N[C@@H](Cc1c[nH]c2ccccc12)C(=O)N[C@H](CC(C)C)C(=O)N[C@@H](Cc1c[nH]c2ccccc12)C(=O)N[C@@H](C(=O)N[C@@H](Cc1c[nH]c2ccccc12)C(=O)NCCO)C(C)C)C(C)C [compound 3778] (For-VGA[dT]A[dL]V[dL]W[dL]W[dL]W[dV]W-NHCH2CH2OH) | 1.08 | 100% | - |
| CC(C)C[C@@H](NC(=O)[C@H](Cc1c[nH]c2ccccc12)NC(=O)[C@H](NC(=O)[C@H](Cc1c[nH]c2ccccc12)NC(=O)[C@H](NC(=O)[C@H](Cc1c[nH]c2ccccc12)NC(=O)[C@@H](CC(C)C)NC(=O)[C@@H](NC(=O)[C@H](NC(=O)[C@H](C)NC(=O)[C@H](NC(=O)[C@H](C)NC(=O)CNC(=O)[C@@H](NC=O)C(C)C)C(C)C)[C@H](C)O)C(C)C)C(C)C)C(C)C)C(=O)N[C@@H](Cc1c[nH]c2ccccc12)C(=O)NCCO [compound 7320] (For-VGA[dV]A[dT]V[dL]W[dV]W[dV]W[dL]W-NHCH2CH2OH) | 1.04 | 58.5% | - |
